This passage reports EC50 results from patent US20220089578A1, “COMPOUNDS AS GLP-1R AGONISTS” (Terns Pharmaceuticals, Inc., priority 2020, published 2022).

What is called EC50 is the concentration that produces a half-maximal response.

The target in the first assay is human GLP-1R (Homo sapiens, UniProt P43220). Kind of assay: GLP-1R Cell Assay 1: cAMP Hunter CHO-K1 GLP1R Gs cell line, HitHunter cAMP assay. The class given is cell-based. Particulars: Table 2; cAMP Hunter CHO-K1 GLP1R Gs cells; percent activity normalized to Exendin-4. Put shortly: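 Luminescent enzyme-fragment-complementation immunoassay quantified cellular cAMP after 30-60 min compound exposure at 37 °C in HBSS/10 mM HEPES. Data from duplicate runs were normalised to Exendin-4 and fitted nonlinearly for EC50.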
human GLP-1R, sequence (P43220 24-463): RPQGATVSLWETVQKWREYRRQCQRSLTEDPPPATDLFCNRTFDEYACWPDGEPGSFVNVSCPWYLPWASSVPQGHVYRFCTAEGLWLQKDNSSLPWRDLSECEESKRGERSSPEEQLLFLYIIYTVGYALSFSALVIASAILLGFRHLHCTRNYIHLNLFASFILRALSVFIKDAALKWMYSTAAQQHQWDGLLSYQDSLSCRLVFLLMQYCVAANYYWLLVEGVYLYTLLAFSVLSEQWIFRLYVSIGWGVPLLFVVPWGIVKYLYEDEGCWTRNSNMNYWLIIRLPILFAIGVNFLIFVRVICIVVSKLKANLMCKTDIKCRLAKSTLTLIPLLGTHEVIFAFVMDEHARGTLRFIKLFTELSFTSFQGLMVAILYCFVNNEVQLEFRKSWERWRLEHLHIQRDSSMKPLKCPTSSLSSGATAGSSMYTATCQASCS
The compound `CC(C)c1cn(C2CCN(Cc3nc4ccc(C(=O)O)cc4n3C[C@@H]3CCO3)CC2)nc1OCc1ccc(C#N)cc1F` [Compound 118, (S)-2-((4-(3-((4-cyano-2-fluorobenzyl)oxy)-4-isopropyl-1H-pyrazol-1-yl)piperidin-1-yl)methyl)-1-(oxetan-2-ylmethyl)-1H-benzo[d]imidazole-6-carboxylic acid] displayed an EC50 of 185 nM.

The compound `O=C(O)c1ccc2nc(CN3CCN(c4cccc(OCc5nc6cc(Cl)ccc6s5)n4)CC3)n(C[C@@H]3CCO3)c2c1` [Compound 112, (S)-2-((4-(6-((5-chlorobenzo[d]thiazol-2-yl)methoxy)pyridin-2-yl)piperazin-1-yl)methyl)-1-(oxetan-2-ylmethyl)-1H-benzo[d]imidazole-6-carboxylic acid] returned a concentration for a half-maximal effect (EC50) of 1.24 nM.

On to `O=C(O)c1ccc2nc(CN3CCC(c4cccc(OCc5nc6ccccc6s5)n4)CC3)n(C[C@@H]3CCO3)c2c1` [Compound 14, (S)-2-((4-(6-(benzo[d]thiazol-2-ylmethoxy)pyridin-2-yl)piperidin-1-yl)methyl)-1-(oxetan-2-ylmethyl)-1H-benzo[d]imidazole-6-carboxylic acid], for which a half-maximal effect (EC50) was put at 0.246 nM.

In turn, `O=C(O)c1ccc2nc(CN3CCN(c4cccc(OCc5nc6ccc(F)cc6s5)n4)CC3)n(C[C@@H]3CCO3)c2c1` [Compound 128, (S)-2-((4-(6-((6-fluorobenzo[d]thiazol-2-yl)methoxy)pyridin-2-yl)piperazin-1-yl)methyl)-1-(oxetan-2-ylmethyl)-1H-benzo[d]imidazole-6-carboxylic acid] came in with an EC50 of 0.246 nM.

`N#Cc1ccc(COc2cccc(N3CCN(Cc4nc5ccc(C(=O)O)cc5n4C[C@@H]4CCO4)CC3)n2)nc1` [Compound 62, (S)-2-((4-(6-((5-cyanopyridin-2-yl)methoxy)pyridin-2-yl)piperazin-1-yl)methyl)-1-(oxetan-2-ylmethyl)-1H-benzo[d]imidazole-6-carboxylic acid] yielded an EC50 of 0.86 nM.

`C[C@]1(c2cccc(OCc3ccc(C#N)cc3F)n2)CCN(Cc2nc3ccc(C(=O)O)cc3n2C[C@@H]2CCO2)C1` (single isomer, unassigned) [Compound 20-P2] had an EC50 of 166 nM.

`N#Cc1cccc2c1CN(c1cccc(N3CCN(Cc4nc5ccc(C(=O)O)cc5n4C[C@@H]4CCO4)CC3)n1)CCC2` [Compound 80, (S)-2-((4-(6-(9-cyano-1,3,4,5-tetrahydro-2H-benzo[c]azepin-2-yl)pyridin-2-yl)piperazin-1-yl)methyl)-1-(oxetan-2-ylmethyl)-1H-benzo[d]imidazole-6-carboxylic acid]: the concentration for a half-maximal effect (EC50) came to 37.9 nM.

In turn, `N#Cc1cc(F)c2c(c1)CCN(c1cccc(C3CCN(Cc4nc5ccc(C(=O)O)cc5n4C[C@@H]4CCO4)CC3)n1)C2` [Compound 13, (S)-2-((4-(6-(6-cyano-8-fluoro-3,4-dihydroisoquinolin-2(1H)-yl)pyridin-2-yl)piperidin-1-yl)methyl)-1-(oxetan-2-ylmethyl)-1H-benzo[d]imidazole-6-carboxylic acid] returned an EC50 of 0.788 nM.

Consider `N#Cc1ccc(COc2cccc(C3CCN([C@@H]4COCCn5c4nc4ccc(C(=O)O)cc45)CC3)n2)c(F)c1` (single isomer, unassigned) [Compound 7-P2], for which the EC50 was over 500 nM.

`N#Cc1ccc2c(c1)CCN(c1cccc(N3CCN(Cc4nc5ccc(C(=O)O)cc5n4C[C@@H]4CCO4)CC3)n1)C2` [Compound 60, (S)-2-((4-(6-(6-cyano-3,4-dihydroisoquinolin-2(1H)-yl)pyridin-2-yl)piperazin-1-yl)methyl)-1-(oxetan-2-ylmethyl)-1H-benzo[d]imidazole-6-carboxylic acid] came in with an EC50 of 8.18 nM.

`N#Cc1cccc2c1CCCN2c1cccc(N2CCN(Cc3nc4ccc(C(=O)O)cc4n3C[C@@H]3CCO3)CC2)n1` [Compound 5, (S)-2-((4-(6-(5-cyano-3,4-dihydroquinolin-1(2H)-yl)pyridin-2-yl)piperazin-1-yl)methyl)-1-(oxetan-2-ylmethyl)-1H-benzo[d]imidazole-6-carboxylic acid]: the EC50 stood at 315 nM.

Regarding `N#Cc1ccc(COc2nn(C3CCN(Cc4nc5ccc(C(=O)O)cc5n4C[C@@H]4CCO4)CC3)cc2C(F)F)c(F)c1` [Compound 135, (S)-2-((4-(3-((4-cyano-2-fluorobenzyl)oxy)-4-(difluoromethyl)-1H-pyrazol-1-yl)piperidin-1-yl)methyl)-1-(oxetan-2-ylmethyl)-1H-benzo[d]imidazole-6-carboxylic acid], the EC50 is 4.88 nM.

`C[C@@H](Oc1cccc(N2CCN(Cc3nc4ccc(C(=O)O)cc4n3C[C@@H]3CCO3)CC2)n1)c1nc2ccccc2s1` [Compound 116, 2-((4-(6-((R)-1-(benzo[d]thiazol-2-yl)ethoxy)pyridin-2-yl)piperazin-1-yl)methyl)-1-(((S)-oxetan-2-yl)methyl)-1H-benzo[d]imidazole-6-carboxylic acid] showed an EC50 of 4.27 nM.

Take `Cn1cnc2cc(COc3cccc(N4CCN(Cc5nc6ccc(C(=O)O)cc6n5C[C@@H]5CCO5)CC4)n3)ccc21` [Compound 3, (S)-2-((4-(6-((1-methyl-1H-benzo[d]imidazol-5-yl)methoxy)pyridin-2-yl)piperazin-1-yl)methyl)-1-(oxetan-2-ylmethyl)-1H-benzo[d]imidazole-6-carboxylic acid]: the midpoint of the response, the EC50, lay at 9.05 nM.

`O=C(O)c1ccc2nc(CN3CCN(c4cccc(OCc5ccc6ocnc6c5)n4)CC3)n(C[C@@H]3CCO3)c2c1` [Compound 103, (S)-2-((4-(6-(benzo[d]oxazol-5-ylmethoxy)pyridin-2-yl)piperazin-1-yl)methyl)-1-(oxetan-2-ylmethyl)-1H-benzo[d]imidazole-6-carboxylic acid] gave a half-maximal effective concentration (EC50) of 5.54 nM.

`O=C(O)c1ccc2nc(CN3CCC(n4ccc(COc5ccccc5)n4)CC3)n(C[C@@H]3CCO3)c2c1` [Compound 26-P1, (S)-1-(oxetan-2-ylmethyl)-2-((4-(3-(phenoxymethyl)-1H-pyrazol-1-yl)piperidin-1-yl)methyl)-1H-benzo[d]imidazole-6-carboxylic acid] gave an EC50 of over 500 nM.

For the compound `O=C(O)c1ccc2nc(CN3CCN(c4cccc(OCC5CCS(=O)(=O)CC5)n4)CC3)n(C[C@@H]3CCO3)c2c1` [Compound 54, (S)-2-((4-(6-((1,1-dioxidotetrahydro-2H-thiopyran-4-yl)methoxy)pyridin-2-yl)piperazin-1-yl)methyl)-1-(oxetan-2-ylmethyl)-1H-benzo[d]imidazole-6-carboxylic acid], the half-maximal effective concentration (EC50) was over 500 nM.

Compound `O=C(O)c1ccc2nc(CN3CCN(c4cccc(OCc5ccccn5)n4)CC3)n(C[C@@H]3CCO3)c2c1` [Compound 40, (S)-1-(oxetan-2-ylmethyl)-2-((4-(6-(pyridin-2-ylmethoxy)pyridin-2-yl)piperazin-1-yl)methyl)-1H-benzo[d]imidazole-6-carboxylic acid] returned an EC50 of 3.28 nM.

Compound `CS(=O)(=O)N1CC(COc2cccc(N3CCN(Cc4nc5ccc(C(=O)O)cc5n4C[C@@H]4CCO4)CC3)n2)C1` [Compound 56, (S)-2-((4-(6-((1-(methylsulfonyl)azetidin-3-yl)methoxy)pyridin-2-yl)piperazin-1-yl)methyl)-1-(oxetan-2-ylmethyl)-1H-benzo[d]imidazole-6-carboxylic acid] came in with a half-maximal effective concentration (EC50) of over 500 nM.

Turning to `N#Cc1ccc2c(c1)CCN(c1ccn(C3CCN(Cc4nc5ccc(C(=O)O)cc5n4C[C@@H]4CCO4)CC3)n1)C2` [Compound 105, (S)-2-((4-(3-(6-cyano-3,4-dihydroisoquinolin-2(1H)-yl)-1H-pyrazol-1-yl)piperidin-1-yl)methyl)-1-(oxetan-2-ylmethyl)-1H-benzo[d]imidazole-6-carboxylic acid], the EC50 was over 500 nM.

The compound `C[C@H](Oc1cccc(N2CCN(Cc3nc4ccc(C(=O)O)cc4n3C[C@@H]3CCO3)CC2)n1)c1nc2ccccc2s1` [Compound 115, 2-((4-(6-((S)-1-(benzo[d]thiazol-2-yl)ethoxy)pyridin-2-yl)piperazin-1-yl)methyl)-1-(((S)-oxetan-2-yl)methyl)-1H-benzo[d]imidazole-6-carboxylic acid] yielded an EC50 of 8 nM.

The same assay, now with this note: Table 3; cAMP Hunter CHO-K1 GLP1R Gs cells; percent activity normalized to Exendin-4.
For `N#Cc1ccc(CN2CCCc3ccc(C4CCN(Cc5nc6ccc(C(=O)O)cc6n5C[C@@H]5CCO5)CC4)nc32)c(F)c1` [Compound 143, (S)-2-((4-(8-(4-cyano-2-fluorobenzyl)-5,6,7,8-tetrahydro-1,8-naphthyridin-2-yl)piperidin-1-yl)methyl)-1-(oxetan-2-ylmethyl)-1H-benzo[d]imidazole-6-carboxylic acid], the EC50 was over 500 nM.

Consider `O=C(O)c1ccc2nc(CN3CCC(n4cc5cccc(Oc6ccccc6)c5n4)CC3)n(C[C@@H]3CCO3)c2c1` [Compound 159, (S)-1-(oxetan-2-ylmethyl)-2-((4-(7-phenoxy-2H-indazol-2-yl)piperidin-1-yl)methyl)-1H-benzo[d]imidazole-6-carboxylic acid], for which the EC50 was over 500 nM.

On to `N#Cc1ccc2c(c1)CCC[C@H]2Oc1cccc(C2CCN(Cc3nc4ccc(C(=O)O)cc4n3C[C@@H]3CCO3)CC2)n1` (single isomer, unassigned) [Compound 146-P1], for which the EC50 is over 500 nM.

Consider `O=C(O)c1ccc2nc(CN3CCN(c4cccc5c4CCN(c4ccccc4)C5)CC3)n(C[C@@H]3CCO3)c2c1` [Compound 155, (S)-1-(oxetan-2-ylmethyl)-2-((4-(2-phenyl-1,2,3,4-tetrahydroisoquinolin-5-yl)piperazin-1-yl)methyl)-1H-benzo[d]imidazole-6-carboxylic acid], for which the EC50 is over 500 nM.

`CCn1ccnc1Cn1c(CN2CC[C@@]3(c4cccc(N5CCc6cc(C#N)cc(F)c6C5)n4)C[C@H]3C2)nc2ccc(C(=O)O)cc21` [Compound 163-P1, 2-(((1R,6S)-6-(6-(6-cyano-8-flluoro-3,4-dihydroisoquinolin-2(1H)-yl)pyridin-2-yl)-3-azabicyclo[4.1.0]heptan-3-yl)methyl)-1-((1-ethyl-1H-imidazol-2-yl)methyl)-1H-benzo[d]imidazole-6-carboxylic acid] came in with an EC50 of 0.266 nM.
